Reference: publication PMC10150366, “Discovery of an In Vivo Chemical Probe for BCL6 Inhibition by Optimization of Tricyclic Quinolinones” (Journal of Medicinal Chemistry, 2023)

Experiments:
[1] = biological target: DAT (Homo sapiens, UniProt Q01959); assay: SAFETYscan Transporter DAT Blocker; type: cell-based
Description: (§1) Supplement jm3c00155_si_002.xlsx, sheet "SAFETYScan" | column: RC50 (uM); Max Response

[2] = biological target: T1, HTR3A (Homo sapiens, UniProt P46098); assay: SAFETYscan Ion Channel HTR3A Blocker; type: cell-based
T1 sequence (P46098 24-478): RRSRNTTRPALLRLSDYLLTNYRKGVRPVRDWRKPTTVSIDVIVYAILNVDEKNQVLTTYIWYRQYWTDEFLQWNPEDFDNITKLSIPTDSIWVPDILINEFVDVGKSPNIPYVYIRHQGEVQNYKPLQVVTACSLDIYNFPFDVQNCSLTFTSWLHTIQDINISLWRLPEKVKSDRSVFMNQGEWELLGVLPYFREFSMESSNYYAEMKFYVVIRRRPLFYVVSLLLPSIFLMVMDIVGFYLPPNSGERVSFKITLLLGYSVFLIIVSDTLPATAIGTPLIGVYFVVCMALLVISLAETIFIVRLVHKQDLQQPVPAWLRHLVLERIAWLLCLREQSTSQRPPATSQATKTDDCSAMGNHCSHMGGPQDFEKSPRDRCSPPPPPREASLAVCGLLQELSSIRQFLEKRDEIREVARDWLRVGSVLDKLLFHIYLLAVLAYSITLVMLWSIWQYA
Description: as §1

[3] = biological target: T2, HTR2B (Homo sapiens, UniProt P41595); assay: SAFETYscan Calcium Flux HTR2B Antagonist; type: cell-based
Description: as §1

[4] = biological target: HRH1 (Homo sapiens, UniProt P35367); assay: SAFETYscan Calcium Flux HRH1 Agonist; type: cell-based
Description: as §1

[5] = biological target: T3, CCKAR (Homo sapiens, UniProt P32238); assay: SAFETYscan Calcium Flux CCKAR Agonist; type: cell-based
T3 sequence (P32238 1-428): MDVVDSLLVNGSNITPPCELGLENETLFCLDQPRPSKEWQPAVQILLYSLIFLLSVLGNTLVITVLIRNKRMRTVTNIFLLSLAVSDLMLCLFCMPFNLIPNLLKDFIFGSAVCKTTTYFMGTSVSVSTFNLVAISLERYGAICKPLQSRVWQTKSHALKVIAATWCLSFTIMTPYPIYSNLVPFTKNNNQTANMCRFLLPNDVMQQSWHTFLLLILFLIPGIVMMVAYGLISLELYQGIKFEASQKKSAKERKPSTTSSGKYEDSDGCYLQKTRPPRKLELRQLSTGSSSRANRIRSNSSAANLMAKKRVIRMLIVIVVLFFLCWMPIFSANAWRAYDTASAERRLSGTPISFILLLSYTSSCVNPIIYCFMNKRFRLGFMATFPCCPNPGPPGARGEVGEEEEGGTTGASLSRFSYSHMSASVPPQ
Description: as §1

[6] = biological target: COX1 (Homo sapiens, UniProt P23219); assay: SAFETYscan Enzymatic COX1 Inhibitor; type: biochemical
Description: (§2) Supplement jm3c00155_si_002.xlsx, sheet "SAFETYScan" | column: RC50 (uM); Hill; Max Response

[7] = biological target: VEGFR2 (Homo sapiens, UniProt P35968); assay: SAFETYscan Kinases Binding VEGFR2 Inhibitor
Description: as §1

[8] = biological target: AChE (Homo sapiens, UniProt P22303); assay: SAFETYscan Enzymatic AChE Inhibitor; type: biochemical
Description: as §1

[9] = biological target: NET (Homo sapiens, UniProt P23975); assay: SAFETYscan Transporter NET Blocker; type: cell-based
Description: as §1

[10] = biological target: OPRD1 (Homo sapiens, UniProt P41143); assay: SAFETYscan cAMP OPRD1 Agonist; type: cell-based
Description: as §1

[11] = biological target: T1, HTR3A; assay: SAFETYscan Ion Channel HTR3A Opener; type: cell-based
Description: as §1

[12] = biological target: T4, HRH2 (Homo sapiens, UniProt P25021); assay: SAFETYscan cAMP HRH2 Antagonist; type: cell-based
Description: as §2

[13] = biological target: CNR2 (Homo sapiens, UniProt P34972); assay: SAFETYscan cAMP CNR2 Agonist; type: cell-based
Description: as §2

[14] = biological target: T2, HTR2B; assay: SAFETYscan Calcium Flux HTR2B Agonist; type: cell-based
Description: as §1

[15] = biological target: ADRB2 (Homo sapiens, UniProt P07550); assay: SAFETYscan cAMP ADRB2 Antagonist; type: cell-based
Description: as §2

[16] = biological target: T4, HRH2; assay: SAFETYscan cAMP HRH2 Agonist; type: cell-based
Description: as §1

[17] = biological target: nAChR(a4/b2) (Homo sapiens, UniProt P17787+P43681); assay: SAFETYscan Ion Channel nAChR(a4/b2) Blocker; type: cell-based
Description: as §1

[18] = test system: OCI-Ly3; assay: 14-day cell proliferation assay, OCI-Ly3; type: cell-based; conditions: Homo sapiens, 14-day assay, BCL6-independent line
Description: DMSO final concentration.
After a short centrifugation the
(1st emission filter) / 450-80 nm (2nd emission filter). The % inhibition at each test concentration was […]
sigmoidal four-parameter logistic fit equation.
2.3 Cell proliferation assay
Aldrich) supplemented with 10% FBS (Gibco). Compounds were initially dispensed into 96-well U-bottom […]
transferred onto the cells.
Assay plates containing cells
(Beckman Coulter). The volume of medium containing 2500 cells in the control well was calculated and this volume of cells was transferred from every well of the assay plates to the corresponding well of the fresh plates containing compound. After 14 days, CellTiter Glo reagent (Promega) was added to the medium in each well of the assay plate at a ratio of 1:2, mixed on a plate shaker, then incubated at room temperature for 10 minutes. Luminescence was measured using an Envision plate reader (Perkin Elmer) and the relative luminescence at each compound concentration, compared to DMSO alone, was calculated. GI50 were determined using a 4-parameter curve fit in Dotmatics (Bishops Stortford, UK).

CNR2, sequence (P34972 whole entry): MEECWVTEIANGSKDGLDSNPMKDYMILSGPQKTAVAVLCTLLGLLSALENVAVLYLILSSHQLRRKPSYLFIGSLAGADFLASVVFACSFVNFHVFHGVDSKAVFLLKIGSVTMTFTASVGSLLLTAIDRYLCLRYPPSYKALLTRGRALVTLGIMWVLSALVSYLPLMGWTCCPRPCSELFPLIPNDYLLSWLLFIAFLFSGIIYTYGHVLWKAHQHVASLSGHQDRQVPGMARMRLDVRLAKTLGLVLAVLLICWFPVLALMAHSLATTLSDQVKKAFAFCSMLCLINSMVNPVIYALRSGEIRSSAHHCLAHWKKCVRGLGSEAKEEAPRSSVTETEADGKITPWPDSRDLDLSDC
T4 sequence (P25021 whole entry): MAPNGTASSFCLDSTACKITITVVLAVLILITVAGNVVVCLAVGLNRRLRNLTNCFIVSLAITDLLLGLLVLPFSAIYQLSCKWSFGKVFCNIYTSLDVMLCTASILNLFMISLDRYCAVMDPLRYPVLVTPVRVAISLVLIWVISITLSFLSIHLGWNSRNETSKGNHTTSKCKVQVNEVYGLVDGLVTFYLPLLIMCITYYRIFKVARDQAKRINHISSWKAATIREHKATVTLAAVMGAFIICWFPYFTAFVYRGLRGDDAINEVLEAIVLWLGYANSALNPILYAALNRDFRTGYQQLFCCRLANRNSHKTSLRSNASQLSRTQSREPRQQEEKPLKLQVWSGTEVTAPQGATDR
COX1, sequence (P23219 24-599): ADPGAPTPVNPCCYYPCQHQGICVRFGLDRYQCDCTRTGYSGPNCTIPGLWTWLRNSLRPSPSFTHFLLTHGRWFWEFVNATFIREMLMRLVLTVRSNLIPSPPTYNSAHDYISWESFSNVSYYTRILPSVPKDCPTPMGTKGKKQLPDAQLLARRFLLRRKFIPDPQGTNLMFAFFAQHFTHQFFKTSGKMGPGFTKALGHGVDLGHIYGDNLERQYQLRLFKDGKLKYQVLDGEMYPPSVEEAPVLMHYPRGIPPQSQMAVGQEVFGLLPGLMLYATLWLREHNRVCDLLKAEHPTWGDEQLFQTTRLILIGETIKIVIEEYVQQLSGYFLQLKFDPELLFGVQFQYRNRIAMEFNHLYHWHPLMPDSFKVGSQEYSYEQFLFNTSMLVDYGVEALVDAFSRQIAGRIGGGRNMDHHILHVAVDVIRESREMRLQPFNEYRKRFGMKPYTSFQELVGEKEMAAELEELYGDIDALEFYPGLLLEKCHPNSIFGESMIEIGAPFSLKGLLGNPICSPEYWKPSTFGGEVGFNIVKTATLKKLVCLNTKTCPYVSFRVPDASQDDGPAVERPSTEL
ADRB2, sequence (P07550 whole entry): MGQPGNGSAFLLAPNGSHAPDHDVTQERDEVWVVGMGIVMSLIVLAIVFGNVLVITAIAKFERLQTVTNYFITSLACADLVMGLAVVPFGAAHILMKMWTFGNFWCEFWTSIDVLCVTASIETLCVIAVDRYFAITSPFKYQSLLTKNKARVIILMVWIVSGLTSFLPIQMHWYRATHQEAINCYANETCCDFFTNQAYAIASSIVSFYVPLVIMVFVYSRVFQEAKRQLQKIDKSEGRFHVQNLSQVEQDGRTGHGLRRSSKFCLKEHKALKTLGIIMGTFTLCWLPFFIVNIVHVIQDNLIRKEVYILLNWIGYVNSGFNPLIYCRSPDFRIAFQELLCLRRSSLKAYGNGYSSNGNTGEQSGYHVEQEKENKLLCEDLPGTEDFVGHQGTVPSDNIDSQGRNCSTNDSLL
T2 sequence (P41595 whole entry): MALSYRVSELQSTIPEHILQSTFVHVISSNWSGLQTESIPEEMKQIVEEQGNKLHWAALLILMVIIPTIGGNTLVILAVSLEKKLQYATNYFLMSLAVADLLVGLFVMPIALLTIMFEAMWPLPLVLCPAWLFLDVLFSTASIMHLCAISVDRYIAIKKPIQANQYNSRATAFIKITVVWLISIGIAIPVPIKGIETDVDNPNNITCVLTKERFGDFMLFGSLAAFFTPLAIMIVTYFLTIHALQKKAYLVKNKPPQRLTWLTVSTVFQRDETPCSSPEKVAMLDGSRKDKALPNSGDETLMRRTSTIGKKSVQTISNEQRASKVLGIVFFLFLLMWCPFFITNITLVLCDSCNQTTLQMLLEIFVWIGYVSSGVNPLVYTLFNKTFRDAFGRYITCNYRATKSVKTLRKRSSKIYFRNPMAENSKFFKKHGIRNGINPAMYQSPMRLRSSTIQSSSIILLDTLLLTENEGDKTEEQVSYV
NET, sequence (P23975 whole entry): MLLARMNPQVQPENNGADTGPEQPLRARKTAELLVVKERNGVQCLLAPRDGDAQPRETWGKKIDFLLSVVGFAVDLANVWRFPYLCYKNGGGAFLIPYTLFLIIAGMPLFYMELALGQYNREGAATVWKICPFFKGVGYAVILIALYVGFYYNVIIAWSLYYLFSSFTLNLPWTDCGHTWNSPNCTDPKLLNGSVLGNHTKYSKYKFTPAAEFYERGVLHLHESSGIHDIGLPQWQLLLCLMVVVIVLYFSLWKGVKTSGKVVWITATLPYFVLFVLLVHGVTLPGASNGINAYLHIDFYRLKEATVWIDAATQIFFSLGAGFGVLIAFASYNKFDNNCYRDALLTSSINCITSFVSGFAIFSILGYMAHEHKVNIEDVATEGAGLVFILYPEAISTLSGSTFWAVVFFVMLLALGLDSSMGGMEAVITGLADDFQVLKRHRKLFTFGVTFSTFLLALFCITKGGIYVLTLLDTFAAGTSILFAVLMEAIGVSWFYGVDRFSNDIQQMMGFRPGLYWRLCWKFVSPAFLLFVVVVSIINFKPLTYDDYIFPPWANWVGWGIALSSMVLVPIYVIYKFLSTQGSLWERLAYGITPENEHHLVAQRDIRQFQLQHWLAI
OPRD1, sequence (P41143 whole entry): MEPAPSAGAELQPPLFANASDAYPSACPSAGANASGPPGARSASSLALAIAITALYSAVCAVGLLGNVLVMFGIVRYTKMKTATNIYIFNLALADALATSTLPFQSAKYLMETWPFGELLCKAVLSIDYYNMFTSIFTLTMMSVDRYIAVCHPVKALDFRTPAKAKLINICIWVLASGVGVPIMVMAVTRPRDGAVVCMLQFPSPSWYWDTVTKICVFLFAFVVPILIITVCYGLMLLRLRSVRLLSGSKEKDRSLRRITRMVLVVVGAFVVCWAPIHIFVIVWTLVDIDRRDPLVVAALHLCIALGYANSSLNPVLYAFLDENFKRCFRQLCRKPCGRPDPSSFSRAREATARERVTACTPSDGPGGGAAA
VEGFR2, sequence (P35968 20-1356): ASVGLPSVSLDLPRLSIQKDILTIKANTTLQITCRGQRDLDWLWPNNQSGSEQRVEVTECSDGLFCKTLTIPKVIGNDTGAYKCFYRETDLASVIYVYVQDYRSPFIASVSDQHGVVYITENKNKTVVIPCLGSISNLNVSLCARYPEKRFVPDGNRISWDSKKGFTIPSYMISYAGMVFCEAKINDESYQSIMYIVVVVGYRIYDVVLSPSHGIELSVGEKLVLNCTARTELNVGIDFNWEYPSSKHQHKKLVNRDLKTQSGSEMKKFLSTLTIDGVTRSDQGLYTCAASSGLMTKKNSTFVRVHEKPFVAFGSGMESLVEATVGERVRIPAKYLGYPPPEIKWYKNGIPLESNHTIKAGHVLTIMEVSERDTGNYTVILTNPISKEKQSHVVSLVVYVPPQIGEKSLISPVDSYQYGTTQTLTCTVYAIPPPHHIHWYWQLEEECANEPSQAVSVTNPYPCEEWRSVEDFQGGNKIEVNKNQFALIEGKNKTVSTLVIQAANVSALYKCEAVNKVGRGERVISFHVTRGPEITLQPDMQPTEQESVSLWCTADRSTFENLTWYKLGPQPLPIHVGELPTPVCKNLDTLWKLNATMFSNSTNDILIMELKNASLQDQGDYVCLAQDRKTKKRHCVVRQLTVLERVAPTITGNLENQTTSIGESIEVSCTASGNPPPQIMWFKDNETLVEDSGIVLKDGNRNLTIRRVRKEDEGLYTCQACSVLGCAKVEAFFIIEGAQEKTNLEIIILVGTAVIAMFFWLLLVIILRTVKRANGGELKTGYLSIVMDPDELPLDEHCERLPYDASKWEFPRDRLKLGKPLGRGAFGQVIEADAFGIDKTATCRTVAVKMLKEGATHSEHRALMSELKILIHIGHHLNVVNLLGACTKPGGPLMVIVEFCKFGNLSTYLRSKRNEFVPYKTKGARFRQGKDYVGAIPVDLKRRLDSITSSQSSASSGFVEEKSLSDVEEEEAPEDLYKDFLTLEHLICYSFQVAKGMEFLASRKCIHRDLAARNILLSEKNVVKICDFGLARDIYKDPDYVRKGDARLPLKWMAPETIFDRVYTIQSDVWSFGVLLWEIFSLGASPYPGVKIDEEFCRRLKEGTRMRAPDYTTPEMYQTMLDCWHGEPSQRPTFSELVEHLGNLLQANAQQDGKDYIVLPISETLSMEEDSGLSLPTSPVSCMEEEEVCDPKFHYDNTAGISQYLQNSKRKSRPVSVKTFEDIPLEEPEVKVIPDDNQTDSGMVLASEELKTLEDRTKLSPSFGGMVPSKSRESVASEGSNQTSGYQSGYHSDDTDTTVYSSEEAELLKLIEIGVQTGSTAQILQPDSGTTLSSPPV
HRH1, sequence (P35367 whole entry): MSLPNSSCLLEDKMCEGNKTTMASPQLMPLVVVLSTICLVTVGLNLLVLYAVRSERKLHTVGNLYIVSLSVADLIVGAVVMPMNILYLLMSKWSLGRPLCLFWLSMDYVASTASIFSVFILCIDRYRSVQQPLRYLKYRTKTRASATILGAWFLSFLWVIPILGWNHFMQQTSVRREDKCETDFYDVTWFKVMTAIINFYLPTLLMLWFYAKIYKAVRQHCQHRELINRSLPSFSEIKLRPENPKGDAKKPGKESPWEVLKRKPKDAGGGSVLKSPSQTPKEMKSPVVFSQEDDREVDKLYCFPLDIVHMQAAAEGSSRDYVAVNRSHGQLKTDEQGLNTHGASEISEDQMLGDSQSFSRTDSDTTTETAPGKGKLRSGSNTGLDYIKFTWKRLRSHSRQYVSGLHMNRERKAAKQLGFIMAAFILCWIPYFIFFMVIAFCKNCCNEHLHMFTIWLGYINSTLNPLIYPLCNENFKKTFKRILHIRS

## Cn1c(=O)c2c(c3cc(Nc4ccnc(F)c4Cl)ccc31)N[C@@H](C1CC1)C(F)(F)CO2 [compound 17, (S)-10-((3-chloro-2-fluoropyridin-4-yl)amino)-2-cyclopropyl-3,3-difluoro-7-methyl-1,2,3,4-tetrahydro-[1,4]oxazepino[2,3-c]quinolin-6(7H)-one]
[1]
  IC50: > 10 µM
[1]; DAT, Transporter, Blocker, read-out: Max Response
  Emax: 0%
[2]
  IC50: > 10 µM
[2]; HTR3A, Ion Channel, Blocker, read-out: Max Response
  Emax: 0%
[3]
  IC50: > 10 µM
[3]; HTR2B, Calcium Flux, Antagonist, read-out: Max Response
  Emax: 0%
[4]; read-out: Max Response
  Emax: 0%
[4]; read-out: RC50 (EC50)
  EC50: > 10 µM
[5]; read-out: Max Response
  Emax: 0.06%
[5]; read-out: RC50 (EC50)
  EC50: > 10 µM
[6]
  Hill: 3.28
[6]; read-out: Max Response
  Emax: 93.1%
[6]; read-out: RC50 (IC50)
  IC50: 4.54 µM
[7]; read-out: Max Response
  Emax: 0%
[7]; read-out: RC50 (IC50)
  IC50: > 10 µM
[8]; read-out: Max Response
  Emax: 9.89%
[8]; read-out: RC50 (IC50)
  IC50: > 10 µM
[9]
  IC50: > 10 µM
[9]; NET, Transporter, Blocker, read-out: Max Response
  Emax: 0%
[10]
  EC50: > 10 µM
[10]; OPRD1, cAMP, Agonist, read-out: Max Response
  Emax: 23.6%
[11]
  EC50: > 10 µM
[11]; HTR3A, Ion Channel, Opener, read-out: Max Response
  Emax: 0%
[12]
  Hill: 1.03
[12]; read-out: Max Response
  Emax: 65.2%
[12]; read-out: RC50 (IC50)
  IC50: 4.76 µM
[13]
  EC50: 1.4 µM
[13]; CNR2, cAMP, Agonist
  Hill: 0.61
[13]; CNR2, cAMP, Agonist, read-out: Max Response
  Emax: 77.7%
[14]
  EC50: > 10 µM
[14]; HTR2B, Calcium Flux, Agonist, read-out: Max Response
  Emax: 0%
[15]
  Hill: 1.29
[15]; read-out: Max Response
  Emax: 89%
[15]; read-out: RC50 (IC50)
  IC50: 1.77 µM
[16]; read-out: Max Response
  Emax: 0%
[16]; read-out: RC50 (EC50)
  EC50: > 10 µM
[17]
  IC50: > 10 µM
[17]; nAChR(a4/b2), Ion Channel, Blocker, read-out: Max Response
  Emax: 0%
[18]
  GI50: 1.85 µM
